Assay results from PubChem BioAssay AID2060503 (Molecular Pharmacology Branch, DTP, NCI, 2025).

Test system: 817829-284-R-J1-PDC complex spheroids, viability
Assay: Anticancer human tumor 817829-284-R-J1-PDC patient-derived colon adenocarcinoma cell line growth inhibition [GQUAD]
Settings: for IC50: curve of first compound; for viability, T/C: stronger effect = lower value
Method in brief: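 Tumor cells were grown as complex spheroids with HUVEC endothelial cells and mesenchymal stem cells as stroma. G-quadruplex stabilizers were combined with targeted agents over half-log dilutions from near the clinical Cmax, or from 10 microM.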

[1] = second compound 0.0316 µM, first compound 0.0316 µM
[2] = second compound 0.0316 µM, first compound 0.1 µM
[3] = second compound 0.0316 µM, first compound 0.316 µM
[4] = second compound 0.0316 µM, first compound 1 µM
[5] = second compound 0.0316 µM, first compound 3.16 µM
[6] = second compound 0.0316 µM, first compound 10 µM
[7] = second compound 0.1 µM, first compound 0.0316 µM
[8] = second compound 0.1 µM, first compound 0.1 µM
[9] = second compound 0.1 µM, first compound 0.316 µM
[10] = second compound 0.1 µM, first compound 1 µM
[11] = second compound 0.1 µM, first compound 3.16 µM
[12] = second compound 0.1 µM, first compound 10 µM
[13] = second compound 0.316 µM, first compound 0.0316 µM
[14] = second compound 0.316 µM, first compound 0.1 µM
[15] = second compound 0.316 µM, first compound 0.316 µM
[16] = second compound 0.316 µM, first compound 1 µM
[17] = second compound 0.316 µM, first compound 3.16 µM
[18] = second compound 0.316 µM, first compound 10 µM
[19] = second compound 1 µM, first compound 0.0316 µM
[20] = second compound 1 µM, first compound 0.1 µM
[21] = second compound 1 µM, first compound 0.316 µM
[22] = second compound 1 µM, first compound 1 µM
[23] = second compound 1 µM, first compound 3.16 µM
[24] = second compound 1 µM, first compound 10 µM
[25] = second compound 3.16 µM, first compound 0.0316 µM
[26] = second compound 3.16 µM, first compound 0.1 µM
[27] = second compound 3.16 µM, first compound 0.316 µM
[28] = second compound 3.16 µM, first compound 1 µM
[29] = second compound 3.16 µM, first compound 3.16 µM
[30] = second compound 3.16 µM, first compound 10 µM
[31] = second compound 10 µM, first compound 0.0316 µM
[32] = second compound 10 µM, first compound 0.1 µM
[33] = second compound 10 µM, first compound 0.316 µM
[34] = second compound 10 µM, first compound 1 µM
[35] = second compound 10 µM, first compound 3.16 µM
[36] = second compound 10 µM, first compound 10 µM
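Also: spheroids exposed to agents for 7 days before readout.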
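For viability, T/C in this document: percent viability relative to DMSO vehicle control taken as 100%.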

## C#Cc1c(F)ccc2cc(O)cc(-c3ncc4c(N5CC6CCC(C5)N6)nc(OCC56CCCN5CC(F)C6)nc4c3F)c12 (stereo unspecified) + CN(C)c1ccc(Nc2c3ccc(NC(=O)CCN4CCCC4)cc3nc3cc(NC(=O)CCN4CCCC4)ccc23)cc1
Second compound 0.0316 µM
  IC50: > 10000 nM
Second compound 0.1 µM
  IC50: > 10000 nM
Second compound 0.316 µM
  IC50: > 10000 nM
Second compound 1 µM
  IC50: > 10000 nM
Second compound 3.16 µM
  IC50: > 10000 nM
Second compound 10 µM
  IC50: 4690 nM
[1]
  viability, T/C: 120%
[2]
  viability, T/C: 98.2%
[3]
  viability, T/C: 96%
[4]
  viability, T/C: 98.1%
[5]
  viability, T/C: 117%
[6]
  viability, T/C: 121%
[7]
  viability, T/C: 95.5%
[8]
  viability, T/C: 106%
[9]
  viability, T/C: 95.8%
[10]
  viability, T/C: 98.4%
[11]
  viability, T/C: 114%
[12]
  viability, T/C: 116%
[13]
  viability, T/C: 111%
[14]
  viability, T/C: 105%
[15]
  viability, T/C: 97.9%
[16]
  viability, T/C: 106%
[17]
  viability, T/C: 101%
[18]
  viability, T/C: 118%
[19]
  viability, T/C: 96.1%
[20]
  viability, T/C: 97%
[21]
  viability, T/C: 113%
[22]
  viability, T/C: 97.8%
[23]
  viability, T/C: 105%
[24]
  viability, T/C: 105%
[25]
  viability, T/C: 107%
[26]
  viability, T/C: 112%
[27]
  viability, T/C: 102%
[28]
  viability, T/C: 110%
[29]
  viability, T/C: 117%
[30]
  viability, T/C: 101%
[31]
  viability, T/C: 107%
[32]
  viability, T/C: 116%
[33]
  viability, T/C: 87.4%
[34]
  viability, T/C: 94%
[35]
  viability, T/C: 61.5%
[36]
  viability, T/C: 24.5%

## CC(=O)O[C@H]1C(=O)[C@@]2(C)[C@H]([C@H](OC(=O)c3ccccc3)[C@]3(O)C[C@H](OC(=O)[C@H](O)[C@@H](NC(=O)c4ccccc4)c4ccccc4)C(C)=C1C3(C)C)[C@]1(OC(C)=O)CO[C@@H]1C[C@@H]2O + CN(C)c1ccc(Nc2c3ccc(NC(=O)CCN4CCCC4)cc3nc3cc(NC(=O)CCN4CCCC4)ccc23)cc1
Second compound 0.0316 µM
  IC50: < 31.6 nM
Second compound 0.1 µM
  IC50: < 31.6 nM
Second compound 0.316 µM
  IC50: < 31.6 nM
Second compound 1 µM
  IC50: < 31.6 nM
Second compound 3.16 µM
  IC50: < 31.6 nM
Second compound 10 µM
  IC50: < 31.6 nM
[1]
  viability, T/C: 10.1%
[2]
  viability, T/C: 6.36%
[3]
  viability, T/C: 5.48%
[4]
  viability, T/C: 3.71%
[5]
  viability, T/C: 4.17%
[6]
  viability, T/C: 5.39%
[7]
  viability, T/C: 9.42%
[8]
  viability, T/C: 5.98%
[9]
  viability, T/C: 5.19%
[10]
  viability, T/C: 3.91%
[11]
  viability, T/C: 4.27%
[12]
  viability, T/C: 5.02%
[13]
  viability, T/C: 8.92%
[14]
  viability, T/C: 5.75%
[15]
  viability, T/C: 5.24%
[16]
  viability, T/C: 2.54%
[17]
  viability, T/C: 3.86%
[18]
  viability, T/C: 5.06%
[19]
  viability, T/C: 7.08%
[20]
  viability, T/C: 5.92%
[21]
  viability, T/C: 5.25%
[22]
  viability, T/C: 3.52%
[23]
  viability, T/C: 4.82%
[24]
  viability, T/C: 5.09%
[25]
  viability, T/C: 6.77%
[26]
  viability, T/C: 5.36%
[27]
  viability, T/C: 6.1%
[28]
  viability, T/C: 5.09%
[29]
  viability, T/C: 4.3%
[30]
  viability, T/C: 5.84%
[31]
  viability, T/C: 10.1%
[32]
  viability, T/C: 6.08%
[33]
  viability, T/C: 5.52%
[34]
  viability, T/C: 4.61%
[35]
  viability, T/C: 4.57%
[36]
  viability, T/C: 5.48%

## COc1cc(C2c3cc4c(cc3C(OC3OC5COC(C)OC5C(O)C3O)C3COC(=O)C23)OCO4)cc(OC)c1O (stereo unspecified) + CN(C)c1ccc(Nc2c3ccc(NC(=O)CCN4CCCC4)cc3nc3cc(NC(=O)CCN4CCCC4)ccc23)cc1
Second compound 0.0316 µM
  IC50: 378 nM
Second compound 0.1 µM
  IC50: 434 nM
Second compound 0.316 µM
  IC50: 375 nM
Second compound 1 µM
  IC50: 229 nM
Second compound 3.16 µM
  IC50: 227 nM
Second compound 10 µM
  IC50: 295 nM
[1]
  viability, T/C: 103%
[2]
  viability, T/C: 85.7%
[3]
  viability, T/C: 35%
[4]
  viability, T/C: 42.8%
[5]
  viability, T/C: 32.1%
[6]
  viability, T/C: 10.2%
[7]
  viability, T/C: 97.5%
[8]
  viability, T/C: 88.6%
[9]
  viability, T/C: 34.5%
[10]
  viability, T/C: 44.9%
[11]
  viability, T/C: 33.9%
[12]
  viability, T/C: 11%
[13]
  viability, T/C: 92.7%
[14]
  viability, T/C: 81.6%
[15]
  viability, T/C: 37.7%
[16]
  viability, T/C: 40.4%
[17]
  viability, T/C: 33.3%
[18]
  viability, T/C: 11.8%
[19]
  viability, T/C: 101%
[20]
  viability, T/C: 92.1%
[21]
  viability, T/C: 33.1%
[22]
  viability, T/C: 40.7%
[23]
  viability, T/C: 32%
[24]
  viability, T/C: 9.94%
[25]
  viability, T/C: 95.4%
[26]
  viability, T/C: 87.9%
[27]
  viability, T/C: 34.3%
[28]
  viability, T/C: 37%
[29]
  viability, T/C: 30.7%
[30]
  viability, T/C: 10.4%
[31]
  viability, T/C: 86.9%
[32]
  viability, T/C: 68.2%
[33]
  viability, T/C: 37.1%
[34]
  viability, T/C: 41.5%
[35]
  viability, T/C: 27.3%
[36]
  viability, T/C: 10%
